Entries after “also recorded” stand apart in the source; their conditions may differ.
Key:
Assay type in all cases: cell-based
[1] = tested on: binding of RORα to β-catenin; test: Coimmunoprecipitation of RORα with β-catenin in HCT116 cells
Protocol: (§1) (A) The specificity of the antibody raised against phosphorylated RORαS35 peptide (SEQ ID NO:18) was assessed by dot blot analysis. (B) Treatment of TPA increased phophorylated RORα on S35 site as assessed by immunoprecipitation with anti-phospho-RORαS35 antibody. […] (D) Treatment of Go6976, a PKCα inhibitor, abolished TPA-dependent phosphorylation of RORα as assessed by immonoblotting with anti-phospho-RORαS35 antibody. (E) HCT116 cells were transfected with Flag-RORα WT, S35D, or S35A, and the cell extracts were immunoprecipitated with anti-Flag antibody followed by immunoblotting against anti-β-catenin antibody. (F) Coimmunoprecipitation assay of β-catenin with either RORαWT or S35A in HCT116 cells after treatment with TPA in the absence or presence of Go6976. (G) ChIP analysis on the cyclin D1 promoter after transfection with Flag-RORαWT, S35A, or S35D in HCT116 cells. (H) ChIP analysis on the cyclin D1 promoter in HCT116 cells after TPA treatment for indicated time. (I) ChIP assay was performed on the cyclin D1 promoter in the absence or presence of siRNA against PKCα with treatment of TPA for 90 min. (J) Real-time quantitative RT-PCR analysis of the cyclin D1 transcript in HCT116 cells in the presence of TPA for indicated time. (K) Knockdown effect of siRNA against RORα or PKCα was assessed in the expression of the cyclin D1 transcript in HCT116 cells.

[2] = tested on: RORα; test: Phosphorylation of RORα in HCT116 cells (immunoprecipitation / immunoblot with anti-phospho-Ser or anti-phospho-RORαS35 antibody)
Protocol: (A) Schematic representation of RORα showing the location of the N-terminal domain (NTD), the DNA-binding domain (DBD), the hinge region, the ligand-binding domain (LBD), and the AF-2 domain. […] HEK293 cells were cotransfected with plasmids expressing each His-tagged RORα deletion construct and β-catenin. Whole cell extracts (left panel) and Ni^+-NTA-agarose pulldown materials (right panel) were analyzed by immunoblotting against anti-β-catenin IgG or anti-Xpress IgG. (C) Illustration of the structure of deletion fragments of RORα(SEQ ID NO:17). (D) Interaction of each RORα deletion construct with HisMax-β-catenin was assessed by Ni^+-NTA-agarose pulldown assay. […] The phosphorylated peptide samples were analyzed by LC-MS analysis. […] Immunoprecipitation assay was conducted with anti-Flag antibody, and the phosphorylated RORα was detected by immunoblot analysis with anti-phospho-Ser antibody. […] The reaction samples were subjected to 12% SDSPAGE, and phosphorylated RORα was detected by autoradiography. […] The fluorescence-conjugated secondary antibody was visualized using fluorescence microscopy, and nuclear staining with DAPI was shown.
(A) The specificity of the antibody raised against phosphorylated RORαS35 peptide (SEQ ID NO:18) was assessed by dot blot analysis. (B) Treatment of TPA increased phophorylated RORα on S35 site as assessed by immunoprecipitation with anti-phospho-RORαS35 antibody. […]

[3] = tested on: cyclin D1 transcript; test: Real-time quantitative RT-PCR of the cyclin D1 transcript in HCT116 cells
Protocol: The abundance of mRNA was detected by an ABI prism 7300 system with SYBR Green (molecular probes). Primer pairs were designed to amplify 90-150 bp mRNA specific fragments, and confirmed to be unique products by melting curve analysis. The PCR conditions were 95° C. (5 min) and 40 cycles of 95° C. (30 s), 57° C. (30 s), and 72° C. (30 s).
The quantity of mRNA was calculated using the ΔΔCt method and normalized by using primers to detect β-actin or HPRT. All reactions were performed in triplicates.

[4] = tested on: cyclin D1 promoter; test: ChIP assay on the cyclin D1 promoter in HCT116 cells
Protocol: as §1
(B) Cyclin D1 transcript was measured after introducing siRNAs against RORα or PKCα in the presence of Wnt5a in HCT116 cells. (C) Real-time quantitative RTPCR analysis of the cyclin D1 transcript in HCT116 cells after introducing RORα, S35A, or S35D in the presence of Wnt5a. (D) […] on the cyclin D1 promoter with treatment of either TPA or Wnt5a in HCT116 cells. Occupancy of the cyclin D1 promoter by phosphorylated RORα, β-catenin, RNA polymerase II, H3K9me2, H3K4me2, CBP, pCAF, p300, or SMRT was indicated. (E) Transwell cell migration assay for RORα, RORαS35A, or RORαS35D-expressing HCT116 cells with treatment of Wnt5a. Values are represented as mean±s.d. for three independent experiments. (F) The anchorage-independent growth of HCT116 cells expressing RORα, RORαS35A, or RORαS35D in soft agar. Values are expressed as mean±SEM for two experiments in 6 place wells. Colonies were counted in 10 different fields and total colony number/well was calculated. Representative image is shown for each group.
The ChIP, two-step ChIP, and shRNA-coupled ChIP assays were conducted as previously described (Baek et al., 2002; Kim et al., 2005).

Compound | TPA-induced increased binding of RORα to β-catenin ([1]; TPA plus Go6976) | TPA-induced phosphorylation of RORα ([2]; in presence of TPA, anti-phospho-RORαS35 immunoblot) | binding of RORα to β-catenin ([1]; TPA treatment) | cyclin D1 transcript [3] | RNA polymerase II recruitment on the cyclin D1 promoter [4] | methylation of histone H3K9 on the cyclin D1 promoter [4] | recruitment of CBP, p300, and pCAF coactivators to the cyclin D1 promoter [4] | recruitment of β-catenin on the cyclin D1 promoter [4] | recruitment of phosphorylated RORα on the cyclin D1 promoter ([4]; anti-phospho-RORαS35 IgG) | phosphorylation of RORα ([2]; HCT116 cells, treatment alone)
Cn1c2ccccc2c2c3c(c4c5ccccc5n(CCC#N)c4c21)CNC3=O [Go6976] | almost completely abolished | abolished | – | – | – | – | – | – | – | –
CCCCCCCCCCCCCC(=O)O[C@@H]1[C@@H](C)[C@@]2(O)[C@@H](C=C(CO)C[C@]3(O)C(=O)C(C)=C[C@@H]23)[C@@H]2C(C)(C)[C@]12OC(C)=O [TPA, 12-O-tetradecanoylphorbol-13acetate] | – | – | significantly increased | downregulation | concomitant decrease; also recorded: decreased | increased methylation | significantly decreased | not altered | increased the recruitment | increased phosphorylation
